From US11203574B2 (BioCryst Pharmaceuticals, Inc., priority 2014, dated 2021)
Read-outs that look alike come from different tables or passages of the source.

Biological target: human plasma kallikrein (Homo sapiens (Human), UniProt P03952)
Test: Plasma kallikrein activity assay (chromogenic substrate S2302)
Format: biochemical
Details: 2 nM kallikrein, 80 μM S2302, 30° C., pH 7.8, Ki by Cheng-Prusoff equation, values given as ranges
Method: Plasma Kallikrein Activity Assay.
The effect of compounds of the invention on human plasma kallikrein activity was determined using the chromogenic substrates (DiaPharma Group, Inc., West Chester, Ohio, USA). In these experiments, 2 nM kallikrein (Enzyme Research Laboratories, South Bend, Ind., USA) was incubated with 80 μM S2302 (H-D-Pro-Phe-Arg-p-nitroaniline) in the absence or presence of increasing concentrations of compounds of the invention in a final volume of 200 μL Tris-HCl buffer (200 mM NaCl; mM CaCl2; 50 mM Tris-HCl, pH 7.8).
Data were analyzed using SigmaPlot software (Systat Software, Inc., San Jose, Calif., USA) (Four Parameter Logistic Curve).

Sequence of human plasma kallikrein (P03952 whole entry, looked up): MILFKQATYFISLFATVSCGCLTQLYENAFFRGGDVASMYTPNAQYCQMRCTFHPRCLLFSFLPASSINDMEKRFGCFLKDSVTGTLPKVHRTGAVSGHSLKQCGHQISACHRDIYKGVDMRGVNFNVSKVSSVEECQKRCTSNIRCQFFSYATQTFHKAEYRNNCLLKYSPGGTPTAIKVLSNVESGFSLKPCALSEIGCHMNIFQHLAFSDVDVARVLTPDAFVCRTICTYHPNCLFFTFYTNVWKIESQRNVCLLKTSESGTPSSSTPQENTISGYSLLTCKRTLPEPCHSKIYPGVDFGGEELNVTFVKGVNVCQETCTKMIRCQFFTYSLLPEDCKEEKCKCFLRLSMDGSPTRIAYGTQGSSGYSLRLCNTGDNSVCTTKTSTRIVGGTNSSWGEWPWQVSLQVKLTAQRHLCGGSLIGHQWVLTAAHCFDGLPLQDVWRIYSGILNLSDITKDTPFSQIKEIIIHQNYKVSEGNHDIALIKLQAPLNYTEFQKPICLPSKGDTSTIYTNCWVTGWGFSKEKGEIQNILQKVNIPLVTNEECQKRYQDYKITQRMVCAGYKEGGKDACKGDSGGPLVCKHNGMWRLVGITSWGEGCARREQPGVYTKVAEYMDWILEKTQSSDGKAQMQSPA
Sequence of human plasma kallikrein (P03952 whole entry partner, looked up): as the sequence (P03952 whole entry, looked up) above

CS(=O)(=O)NC(CCC1CC1)(c1ccncc1)c1ccc(F)c(NC(=O)c2cc(C(F)(F)F)nn2-c2cccc(CN)c2)c1 (single isomer, unassigned; (-)) [245c, (−)-1-(3-(aminomethyl)phenyl)-N-(5-(3-cyclopropyl-1-(methylsulfonamido)-1-(pyridin-4-yl)propyl)-2-fluorophenyl)-3-(trifluoromethyl)-1H-pyrazole-5-carboxamide]
Ki (read-out: Ki): 0.1 to 50 nM

CS(=O)(=O)NC(CCC1CC1)(c1ccncc1)c1ccc(F)c(NC(=O)c2cc(C(F)(F)F)nn2-c2ccc3ccnc(N)c3c2)c1 (single isomer, unassigned; (-)) [262f, (−)-1-(1-aminoisoquinolin-7-yl)-N-(5-(3-cyclopropyl-1-(methylsulfonamido)-1-(pyridin-4-yl)propyl)-2-fluorophenyl)-3-(trifluoromethyl)-1H-pyrazole-5-carboxamide]
Ki (read-out: Ki): 0.1 to 50 nM

CCNCc1cccc(-n2nc(C(F)(F)F)cc2C(=O)Nc2cc(C(NCC3CC3)c3ccccc3)ccc2F)c1 (single isomer, unassigned; (-)) [270a, (−)-N-(5-((cyclopropylmethylamino)(phenyl)methyl)-2-fluorophenyl)-1-(3-((ethylamino)methyl)phenyl)-3-(trifluoromethyl)-1H-pyrazole-5-carboxamide]
Ki (read-out: Ki): 50 to 100 nM

CCOC(c1ccccc1)c1cccc(NC(=O)c2cc(C(F)(F)F)nn2-c2cccc(CN)c2)c1 (stereo not shown) [18g, 1-(3-(aminomethyl)phenyl)-N-(3-(ethoxy(phenyl)methyl)phenyl)-3-(trifluoromethyl)-1H-pyrazole-5-carboxamide]
Ki (read-out: Ki): 50 to 100 nM

CCCOC(c1ccccc1)c1cccc(NC(=O)c2cc(C(F)(F)F)nn2-c2cccc(CN)c2)c1 (stereo not shown) [18h, 1-(3-(aminomethyl)phenyl)-N-(3-(phenyl(propoxy)methyl)phenyl)-3-(trifluoromethyl)-1H-pyrazole-5-carboxamide]
Ki (read-out: Ki): 50 to 100 nM

CC(C)COC(c1ccccc1)c1cccc(NC(=O)c2cc(C(F)(F)F)nn2-c2cccc(CN)c2)c1 (stereo not shown) [18i, 1-(3-(aminomethyl)phenyl)-N-(3-(isobutoxy(phenyl)methyl)phenyl)-3-(trifluoromethyl)-1H-pyrazole-5-carboxamide]
Ki (read-out: Ki): 50 to 100 nM

NCc1cccc(-n2nc(C(F)(F)F)cc2C(=O)Nc2cccc(C(OCC3CC3)c3ccccc3)c2)c1 (stereo not shown) [18k, 1-(3-(aminomethyl)phenyl)-N-(3-((cyclopropylmethoxy)(phenyl)methyl)phenyl)-3-(trifluoromethyl)-1H-pyrazole-5-carboxamide]
Ki (read-out: Ki): 0.1 to 50 nM

CCOC(c1ccccc1)c1ccc(F)c(NC(=O)c2cc(C(F)(F)F)nn2-c2cccc(CN)c2)c1 (stereo not shown) [25b, 1-(3-(aminomethyl)phenyl)-N-(5-(ethoxy(phenyl)methyl)-2-fluorophenyl)-3-(trifluoromethyl)-1H-pyrazole-5-carboxamide]
Ki (read-out: Ki): 50 to 100 nM

CCCN(c1ccccc1)c1cccc(NC(=O)c2cc(C(F)(F)F)nn2-c2cccc(CN)c2)c1 [27f, 1-(3-(aminomethyl)phenyl)-N-(3-(phenyl(propyl)amino)phenyl)-3-(trifluoromethyl)-1H-pyrazole-5-carboxamide]
Ki (read-out: Ki): 50 to 100 nM

CCCN(c1ccccc1)c1cccc(NC(=O)c2cc(C(F)(F)F)nn2-c2cccc(CN)c2)c1F [29e, 1-(3-(aminomethyl)phenyl)-N-(2-fluoro-3-(phenyl(propyl)amino)phenyl)-3-(trifluoromethyl)-1H-pyrazole-5-carboxamide]
Ki (read-out: Ki): 0.1 to 50 nM

CCCCC(c1ccccc1)c1cccc(NC(=O)c2cc(C(F)(F)F)nn2-c2cccc(CN)c2)c1 (stereo not shown) [32f, 1-(3-(aminomethyl)phenyl)-N-(3-(1-phenylpentyl)phenyl)-3-(trifluoromethyl)-1H-pyrazole-5-carboxamide]
Ki (read-out: Ki): 50 to 100 nM

NCc1cccc(-n2nc(C(F)(F)F)cc2C(=O)Nc2cccc(C(O)c3ccccc3)c2F)c1 (stereo not shown) [35g, 1-(3-(aminomethyl)phenyl)-N-(2-fluoro-3-(hydroxy(phenyl)methyl)phenyl)-3-(trifluoromethyl)-1H-pyrazole-5-carboxamide]
Ki (read-out: Ki): 50 to 100 nM

NCc1cccc(-n2nc(C(F)(F)F)cc2C(=O)Nc2cccc(C(OCC3CC3)c3ccccc3)c2F)c1 (stereo not shown) [36d, 1-(3-(aminomethyl)phenyl)-N-(3-((cyclopropylmethoxy)(phenyl)methyl)-2-fluorophenyl)-3-(trifluoromethyl)-1H-pyrazole-5-carboxamide]
Ki (read-out: Ki): 0.1 to 50 nM

NCc1cccc(-n2nc(C(F)(F)F)cc2C(=O)Nc2cccc(C(O)(CCC3CC3)c3ccccn3)c2)c1 (stereo not shown) [45g, 1-(3-(aminomethyl)phenyl)-N-(3-(3-cyclopropyl-1-hydroxy-1-(pyridin-2-yl)propyl)phenyl)-3-(trifluoromethyl)-1H-pyrazole-5-carboxamide]
Ki (read-out: Ki): 0.1 to 50 nM

NCc1cccc(-n2nc(C(F)(F)F)cc2C(=O)Nc2cccc(C(OCC3CC3)c3cccc(N)c3)c2)c1 (stereo not shown) [53f, 1-(3-(aminomethyl)phenyl)-N-(3-((3-aminophenyl)(cyclopropyl-methoxy)methyl)phenyl)-3-(trifluoromethyl)-1H-pyrazole-5-carboxamide]
Ki (read-out: Ki): 0.1 to 50 nM

NCc1cccc(-n2nc(C(F)(F)F)cc2C(=O)Nc2cccc(C(OCCC3CC3)c3ccccc3)c2)c1 (stereo not shown) [74a, 1-(3-(aminomethyl)phenyl)-N-(3-((2-cyclopropylethoxy)(phenyl)methyl)phenyl)-3-(trifluoromethyl)-1H-pyrazole-5-carboxamide]
Ki (Ki): 0.1 to 50 nM

NCc1cccc(-n2nc(C(F)(F)F)cc2C(=O)Nc2cccc(C(OCC3CCC3)c3ccccc3)c2)c1 (stereo not shown) [75a, 1-(3-(aminomethyl)phenyl)-N-(3-((cyclobutylmethoxy)(phenyl)methyl)phenyl)-3-(trifluoromethyl)-1H-pyrazole-5-carboxamide]
Ki (read-out: Ki): 50 to 100 nM

CCCN(c1ccccc1)c1ccc(F)c(NC(=O)c2cc(C(F)(F)F)nn2-c2cccc(CN)c2)c1 [77e, 1-(3-(aminomethyl)phenyl)-N-(2-fluoro-5-(phenyl(propyl)amino)phenyl)-3-(trifluoromethyl)-1H-pyrazole-5-carboxamide]
Ki (read-out: Ki): 0.1 to 50 nM

NCc1cccc(-n2nc(C(F)(F)F)cc2C(=O)Nc2cccc(C(CCC3CC3)c3ccccc3)c2)c1 (stereo not shown) [78d, 1-(3-(aminomethyl)phenyl)-N-(3-(3-cyclopropyl-1-phenylpropyl)phenyl)-3-(trifluoromethyl)-1H-pyrazole-5-carboxamide]
Ki (read-out: Ki): 0.1 to 50 nM

NCc1cccc(-n2nc(C(F)(F)F)cc2C(=O)Nc2cccc(C(NCC3CC3)c3cccnc3)c2)c1 (stereo not shown) [79f, 1-(3-(Aminomethyl)phenyl)-N-(3-(((cyclopropylmethyl)amino)(pyridin-3-yl)methyl)phenyl)-3-(trifluoromethyl)-1H-pyrazole-5-carboxamide]
Ki (read-out: Ki): 0.1 to 50 nM

NCc1cccc(-n2nc(C(F)(F)F)cc2C(=O)Nc2cc(F)cc(C(OCC3CC3)c3ccccc3)c2)c1 (stereo not shown) [80h, 1-(3-(aminomethyl)phenyl)-N-(3-((cyclopropylmethoxy)(phenyl)methyl)-5-fluorophenyl)-3-(trifluoromethyl)-1H-pyrazole-5-carboxamide]
Ki (read-out: Ki): 0.1 to 50 nM

NCc1cccc(-n2nc(C(F)(F)F)cc2C(=O)Nc2cccc(C(OCC3CC3)c3nccs3)c2)c1 (stereo not shown) [82f, 1-(3-(aminomethyl)phenyl)-N-(3-((cyclopropylmethoxy)(thiazol-2-yl)methyl)phenyl)-3-(trifluoromethyl)-1H-pyrazole-5-carboxamide]
Ki (read-out: Ki): 0.1 to 50 nM
